{"source": "patent US20240277682A1", "about": "“PHARMACEUTICAL HYDRONIDONE FORMULATIONS FOR DISEASES” (Gyre Therapeutics, Inc., priority 2021, published 2024)", "key": {"liver fibrosis": {"tested_on": "liver fibrosis", "assay": "HSA-induced and DMN-induced liver fibrosis in rats", "type": "in vivo", "description": "Hydronidone anti-fibrotic effects were evaluated in several animal models of liver fibrosis, such as human serum albumin (HSA)-induced liver fibrosis in rats, dimethyl nitrosamine (DMN)-induced liver fibrosis in rats, and carbon tetrachloride (CCl4)-induced liver fibrosis in mice. […] In the CCl4-induced liver fibrosis in mice, Hydronidone effects were the most prominent at the doses of 3-10 mg/kg/day, although some effects were also shown at the dose of 1 mg/kg/day. In some embodiments, this dose range corresponds to human equivalent dose (HED) range of 15-50 mg. […] The HED of these rat doses are in the range of 100-2,400 mg which were all tested as safe in Phase I clinical trials of Hydronidone, with the 100 mg dose being […] the maximum daily dose of 360 mg (administered as 120 mg TID) administered to the subjects with liver fibrosis due to chronic Hepatitis B in the ongoing Phase II clinical study of efficacy and safety of Hydronidone in China."}, "[1]": {"assay": "In vitro drug-drug interaction with Entecavir and Lamivudine in human liver microsomes", "quoted_text": "Entecavir and Lamivudine, were used concomitantly with Hydronidone, or individually, in the in vitro drug interaction experiments, in respective concentrations of each of 1.5 mM."}, "[2]": {"assay": "Safety, tolerability and PK of single doses, 7-day and 4-week multiple oral doses (Example 10)", "type": "in vivo, human", "description": "This was a randomized, open-label, study of safety, tolerability and PK of single doses, 7-day, and 4-week multiple oral doses of Hydronidone in healthy Chinese subjects.\nThis study was conducted in three parts. In the first part single escalating doses of Hydronidone of 15 mg, 30 mg, 60 mg, 90 mg, and 120 mg/day were administered to six (6), eight (8), eight (8), six (6), six (6) healthy subjects, respectively, as per the Fibonacci Escalating Method (modified Fibonacci method). […] As no adverse experiences were reported at any dose level, the two highest single dose levels of 90 mg and 120 mg of Hydronidone were selected for the second part of the study, and were administered TID to 6 subjects each, for seven consecutive days. Thus, total daily doses of Hydronidone in these two dose groups were 270 mg and 360 mg, respectively. All subjects completed the seven-day dosing regimen without premature discontinuation. No clinically-significant abnormal changes in vital signs, ECG and laboratory test results of each group of subjects were found. In the third part of the study, six (6) subjects were given oral Hydronidone at a daily dose of 60 mg TID (total daily dose of 180 mg) for four (4) consecutive weeks. All subjects completed the seven-day dosing regimen without premature discontinuation. No clinically-significant abnormal changes in vital signs, ECG and laboratory test results of each group of subjects were found.\nPK assessments were performed in each part of the study. In the single part of the study, the PK parameters also included food effect assessment."}, "[3]": {"assay": "PK study of single ascending oral doses in healthy volunteers (Example 7)", "type": "in vivo, human", "settings": "for CL renal / AUC / AUC(0-t) / Cmax / Tmax: male, human; for CL renal: plasma and urine; for CL renal / AUC / AUC(0-t) / Cmax / Tmax / Cl_F_pred / HL_Lambda_z / Lambda_z / Vz_F_pred: fasted; for CL renal / AUC / AUC(0-t) / Cmax / Cl_F_pred / HL_Lambda_z / Lambda_z / Vz_F_pred / Amount_Recovered / Percent_Recovered (urinary percentage of Hydronidone): n = 12, Mean(SD); for AUC / AUC(0-t) / Cmax / Tmax: plasma; for AUC: healthy Chinese subjects, read-out: AUCINE_pred; for Tmax: n = 12, Median (Min-Max); for Amount_Recovered / Percent_Recovered (urinary percentage of Hydronidone): urine", "description": "This was randomized, open-label, 4-period, crossover PK study of single ascending oral doses of Hydronidone in healthy volunteers.\nAscending single oral doses of 200 mg, 400 mg, 600 mg and 800 mg of Hydronidone were given to 12 eligible, healthy male Chinese subjects, 26-38 years of age, satisfying all inclusion and exclusion criteria, and randomly divided into four dose groups, 3 subjects per group, under fasted conditions. According to the Williams Design, the subjects in each group were treated with Hydronidone at four different doses in four periods. The PK blood samples were collected at: 0 (pre-dose), 10 min, 20 min, 30 min, 40 min, 1 hr, 1.5 hr, 2 hr, 3 hr, 4 hr, 5 hr, 6 hr, 8 hr, 10 hr, 12 hr, 16 hr, and 24 hr, and 48 hr post-dose. The subjects also provided PK urine samples at 0 (pre-dose), 5 hr, 12 hr, and 24 hr post-dose. There was additional 24 hr washout period after the end of collection of PK samples, a total of 48 hrs between the first and the next dose level administration. Blood and urine samples were analysed for determination of plasma and urine concentrations of Hydronidone and its metabolites (M3)."}, "[4]": {"assay": "In vitro Phase I metabolism in human liver microsomes", "type": "in vitro ADME", "description": "The in vitro Phase I metabolism of hydronidone was evaluated by incubating human liver microsomes with hydronidone for 60 minutes."}}, "note": "Read-outs that look alike come from different tables or passages of the source.", "data": [{"smiles": "Cc1ccc(=O)n(-c2ccc(O)cc2)c1", "note": "[Hydronidone, N-(4-hydroxyphenyl)-5-Methyl-2-pyridone]", "values": [{"measurement": "anti-fibrotic effect (level of fibrosis, hydroxyproline, ALT, AST)", "setting": "liver fibrosis; HSA- and DMN-induced liver fibrosis in rats", "result": "potent anti-fibrotic effect"}, {"measurement": "anti-fibrotic effect compared with silymarin extract (positive control)", "setting": "liver fibrosis; rats", "result": "comparable or more potent than silymarin extract"}, {"measurement": "dose range in which anti-fibrotic effects were shown", "setting": "liver fibrosis; rats, depending on the model", "result": "10 to 250", "unit": "mg/kg/day"}, {"measurement": "role of liver metabolism as metabolic pathway", "setting": "[1]", "result": "the liver metabolism is not the main Hydronidone metabolic pathway"}, {"measurement": "maximum tolerated single oral dose", "setting": "[2]; healthy subjects", "result": 120, "unit": "mg"}, {"measurement": "Tmax", "setting": "[2]; human, in vivo, po, 120 mg", "result": "36 ± 29.4", "unit": "min"}, {"measurement": "QTc interval", "setting": "[2]; in vivo", "result": "no abnormal prolongation of the QTc interval"}, {"measurement": "subjects with increase in T-BIL and D-BIL post-dose values", "setting": "[2]; in vivo", "result": "Three"}, {"measurement": "amount of intact drug excreted via urine during 48 h", "setting": "[3]; first of four values (doses 200, 400, 600, 800 mg): 200 mg", "result": "82.25 ± 40.95", "unit": "mg"}, {"measurement": "amount of intact drug excreted via urine during 48 h", "setting": "[3]; fourth of four values: 800 mg", "result": "234.72 ± 210.50", "unit": "mg"}, {"measurement": "CL renal", "setting": "[3]; single oral dose 200 mg", "result": 14.7, "unit": "mL/min"}, {"measurement": "CL renal", "setting": "[3]; single oral dose 400 mg", "result": 11.1, "unit": "mL/min"}, {"measurement": "CL renal", "setting": "[3]; single oral dose 600 mg", "result": 9.83, "unit": "mL/min"}, {"measurement": "CL renal", "setting": "[3]; single oral dose 800 mg", "result": 8.7, "unit": "mL/min"}, {"measurement": "AUC", "setting": "[3]; single oral dose 200 mg", "result": 1380, "unit": "ng·h/mL"}, {"measurement": "AUC(0-t)", "setting": "[3]; single oral dose 200 mg", "result": 1360, "unit": "ng·h/mL"}, {"measurement": "Cmax", "setting": "[3]; single oral dose 200 mg", "result": 715, "unit": "ng/mL"}, {"measurement": "Tmax", "setting": "[3]; single oral dose 200 mg", "result": 19.8, "unit": "min"}, {"measurement": "AUC", "setting": "[3]; single oral dose 400 mg", "result": 2800, "unit": "ng·h/mL"}, {"measurement": "AUC(0-t)", "setting": "[3]; single oral dose 400 mg", "result": 2780, "unit": "ng·h/mL"}, {"measurement": "Cmax", "setting": "[3]; single oral dose 400 mg", "result": 1400, "unit": "ng/mL"}, {"measurement": "Tmax", "setting": "[3]; single oral dose 400 mg", "result": 19.8, "unit": "min"}, {"measurement": "AUC", "setting": "[3]; single oral dose 600 mg", "result": 5010, "unit": "ng·h/mL"}, {"measurement": "AUC(0-t)", "setting": "[3]; single oral dose 600 mg", "result": 4920, "unit": "ng·h/mL"}, {"measurement": "Cmax", "setting": "[3]; single oral dose 600 mg", "result": 2500, "unit": "ng/mL"}, {"measurement": "Tmax", "setting": "[3]; single oral dose 600 mg", "result": 40.2, "unit": "min"}, {"measurement": "AUC", "setting": "[3]; single oral dose 800 mg", "result": 6310, "unit": "ng·h/mL"}, {"measurement": "AUC(0-t)", "setting": "[3]; single oral dose 800 mg", "result": 6290, "unit": "ng·h/mL"}, {"measurement": "Cmax", "setting": "[3]; single oral dose 800 mg", "result": 2960, "unit": "ng/mL"}, {"measurement": "Tmax", "setting": "[3]; single oral dose 800 mg", "result": 40.2, "unit": "min"}, {"measurement": "amount of intact drug excreted via urine during 48 h", "setting": "[3]; second of four values: 400 mg", "result": "183.75 ± 142.14", "unit": "mg"}, {"measurement": "Cl_F_pred", "setting": "[3]; single oral dose 200 mg", "result": "154(39.65) L/hr"}, {"measurement": "HL_Lambda_z", "setting": "[3]; single oral dose 200 mg", "result": "6.9(2.06) hr"}, {"measurement": "Lambda_z", "setting": "[3]; single oral dose 200 mg", "result": "0.1093(0.03) l/hr"}, {"measurement": "Vz_F_pred", "setting": "[3]; single oral dose 200 mg", "result": "1540(644.41) L"}, {"measurement": "Cl_F_pred", "setting": "[3]; single oral dose 400 mg", "result": "154(44.83) L/hr"}, {"measurement": "HL_Lambda_z", "setting": "[3]; single oral dose 400 mg", "result": "5.26(1.58) hr"}, {"measurement": "Lambda_z", "setting": "[3]; single oral dose 400 mg", "result": "0.1434(0.04) l/hr"}, {"measurement": "Vz_F_pred", "setting": "[3]; single oral dose 400 mg", "result": "1180(530.69) L"}, {"measurement": "Cl_F_pred", "setting": "[3]; single oral dose 600 mg", "result": "129(35.67) L/hr"}, {"measurement": "HL_Lambda_z", "setting": "[3]; single oral dose 600 mg", "result": "6.46(2.07) hr"}, {"measurement": "Lambda_z", "setting": "[3]; single oral dose 600 mg", "result": "0.1141(0.02) l/hr"}, {"measurement": "Vz_F_pred", "setting": "[3]; single oral dose 600 mg", "result": "1180(407.19) L"}, {"measurement": "Cl_F_pred", "setting": "[3]; single oral dose 800 mg", "result": "134(35.93) L/hr"}, {"measurement": "HL_Lambda_z", "setting": "[3]; single oral dose 800 mg", "result": "5.54(0.86) hr"}, {"measurement": "Lambda_z", "setting": "[3]; single oral dose 800 mg", "result": "0.1278(0.02) l/hr"}, {"measurement": "Vz_F_pred", "setting": "[3]; single oral dose 800 mg", "result": "1080(336.89) L"}, {"measurement": "safety and tolerability", "setting": "[3]; single oral doses of 200, 400, 600, 800 mg, Chinese healthy subjects", "result": "safe and well tolerated with no adverse events nor SAEs reported"}, {"measurement": "amount of intact drug excreted via urine during 48 h", "setting": "[3]; third of four values: 600 mg", "result": "218.93 ± 182.73", "unit": "mg"}, {"measurement": "Amount_Recovered", "setting": "[3]; single oral dose 200 mg", "result": "1.27(1.34) L*mg/L"}, {"measurement": "Percent_Recovered (urinary percentage of Hydronidone)", "setting": "[3]; single oral dose 200 mg", "result": "0.634±0.57", "unit": "%"}, {"measurement": "Percent_Recovered (urinary percentage of Hydronidone)", "setting": "[3]; single oral dose 200 mg, listed as hydronidone", "result": "0.634(0.57) %"}, {"measurement": "Amount_Recovered", "setting": "[3]; single oral dose 400 mg", "result": "1.92(0.87) L*mg/L"}, {"measurement": "Percent_Recovered (urinary percentage of Hydronidone)", "setting": "[3]; single oral dose 400 mg", "result": "0.479±0.22", "unit": "%"}, {"measurement": "Percent_Recovered (urinary percentage of Hydronidone)", "setting": "[3]; single oral dose 400 mg, listed as hydronidone", "result": "0.479(0.22) %"}, {"measurement": "Amount_Recovered", "setting": "[3]; single oral dose 600 mg", "result": "2.86(1.19) L*mg/L"}, {"measurement": "Percent_Recovered (urinary percentage of Hydronidone)", "setting": "[3]; single oral dose 600 mg", "result": "0.476±0.2", "unit": "%"}, {"measurement": "Percent_Recovered (urinary percentage of Hydronidone)", "setting": "[3]; single oral dose 600 mg, listed as hydronidone", "result": "0.476(0.2) %"}, {"measurement": "Amount_Recovered", "setting": "[3]; single oral dose 800 mg", "result": "3.22(2.03) L*mg/L"}, {"measurement": "Percent_Recovered (urinary percentage of Hydronidone)", "setting": "[3]; single oral dose 800 mg", "result": "0.403±0.25", "unit": "%"}, {"measurement": "Percent_Recovered (urinary percentage of Hydronidone)", "setting": "[3]; single oral dose 800 mg, listed as hydronidone", "result": "0.403(0.25) %"}, {"measurement": "formation of metabolites", "setting": "[4]", "result": "no formation of metabolites was observed"}]}]}
